Source: patent US12265087B2, “Olfactory receptor as microglia marker and use thereof” (DAEGU GYEONGBUK INSTITUTE OF SCIENCE AND TECHNOLOGY, priority 2019, dated 2025)

What was measured:
Olfr111 = experiment: Luciferase assay in Hana3A cells transfected with Olfr111; assay type: cell-based, mouse; conditions: for binding to Olfr1111: furan derivatives; for reactivity with Olfr111 (relative luciferase activity): Hana3A cells
Method: (§1) A Dual-Glo luciferase assay system (#E2940; Promega) was used for OR ligand screening. More specifically, Hana3A cells were seeded in white polystyrene 96-well plates (#353296; BD Biosciences) one day before transfection. pCRELuc (1 μg; #219076; Agilent Technologies), pRL-SV40 (1 μg; #E2231; Promega), RTP1S (1 μg), and OR (6 μg; or Mock) vectors were transfected for 24 hours in each plate. Analysis was performed using Lipofectamine 2000 (#11668-019; Thermo Fisher Scientific) according to the manufacturer's protocols. Transfected cells were stimulated at 37° C. for 4 hours with various concentrations of diluted odorants in a CD293 medium (#11913-019; Thermo Fisher Scientific). The activity of luciferase was normalized to that of Renilla luciferase. Luminescence was measured using a SpectraMax L microplate reader (Molecular Devices).

Olfr110 = target: T1, Olfr110 (Mus musculus, UniProt A2RT31); experiment: Luciferase assay in Hana3A cells transfected with Olfr110; assay type: cell-based; conditions: for binding to Olfr110: furan derivatives; for reactivity with Olfr110 (relative luciferase activity): Hana3A cells
T1 construct: Full-length odorant receptor genes from mouse and human genomic DNAs were amplified using appropriate primers; Lucy (N); Flag (N); Rho (N); expressed in transfected cells; host or cells: Hana3A cells, co-transfected with RTP1S, pCRELuc and pRL-SV40
T1 sequence (A2RT31 1-317): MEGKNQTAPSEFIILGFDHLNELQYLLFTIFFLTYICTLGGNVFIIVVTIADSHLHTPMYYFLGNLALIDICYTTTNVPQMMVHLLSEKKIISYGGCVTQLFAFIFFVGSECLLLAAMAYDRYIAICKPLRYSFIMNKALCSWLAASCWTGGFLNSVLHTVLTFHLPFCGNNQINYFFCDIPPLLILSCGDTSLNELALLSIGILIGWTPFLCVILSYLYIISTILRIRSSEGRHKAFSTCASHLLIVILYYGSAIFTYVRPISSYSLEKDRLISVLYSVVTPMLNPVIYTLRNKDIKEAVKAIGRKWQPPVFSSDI
Method: as §1

primary microglia [1] = experiment: ROS / superoxide generation in primary microglia; assay type: cell-based, mouse; conditions: for ROS generated with 2-PF co-treatment: Sup MOI 5 + 500 μM 2-PF, 2-EF 0, 100, 300, 500 μM; for ROS generation after 2-PF: inhibitor pretreatment, then 2-PF
Method: Superoxide concentrations were calculated by measuring the degree ofcytochrome c reduction using a VersaMax microplate reader (Babior et al., 1973). Microglia were cultured in a 96 well plate at a concentration of 1.0×10^5 cells/well, and the microglia were activated by a 10 μM ATP solution containing 2-PF and cytochrome c, or a solution in which Sup is mixed with cytochalasin B (5 μM; #C66762; Sigma Aldrich). The concentration of ROS was measured through a change in light absorption every minute for 25 minutes at 550 nm.
ROS levels were measured using 2′,7′-dichlorodihydrofluorescein diacetate (DCF-DA, #D6883; Sigma Aldrich) by a previously described method with minor modifications (Bae et al., 2001). More specifically, primary microglia were seeded in 24-well plates (5.0×10^5 cells/well) for 24 hours, and then treated with 10 μM DCF-DA at 37° C. for 30 minutes. One plate was treated with 2-PF, and the other one was not. The cells in each well were measured using a flow cytometer (FACS Accuri™ C6; BD Biosciences). MFI was measured as described above.

primary microglia [2] = experiment: Cytokine ELISA of primary microglia; assay type: cell-based, mouse; conditions: inhibitor pretreatment, then 2-PF
Method: The levels of expression of cytokines Tnf, i16 and I11b secreted from microglia were measured according to the manufacturer's protocols. More specifically, the levels were measured by ELISA 24 hours after treatment with 2-PF or a cell supernatant. The ELISA kit was purchased from BD Biosciences (#DY410 for Tnf; #DY406 for I16; #DY401 for I11b).

primary microglia [3] = experiment: Western blotting of phosphorylated signaling proteins in primary microglia; assay type: cell-based, mouse; conditions: inhibitor pre-cultivation, then 2-PF
Method: Cells and tissue were prepared using the T-PER® reagent (#78510; Thermo Fisher Scientific) containing protease inhibitors (#04-693-116-001; Roche Molecular Diagnostics) and DMSF (Sigma-Aldrich), and then lysed using a MagNA lyser (Roche Molecular Diagnostics). A total protein extract was quantified by the Bradford assay. The samples were dissolved in 7.5% SDS-PAGE or 4-20% gradient mini-PROTEIN TGX Precast Gels (#456-1064; Bio-Rad Laboratories), and then blotted on nitrocellulose membranes (#10600002; GE Healthcare). Afterward, the membranes were blocked for 1 hour in 5% non-fat dry milk and TBST, 0.1% TWEEN® 20 (#P9416; Sigma-Aldrich), and Tris-buffered saline, and then incubated with primary antibodies at 4° C. overnight. The antibodies were as follows: Olfr110 (36 kDa; 1:1,000; #ab177327; Abcam), anti-rhodopsin (39 kDa; 1:1,000; #MABN15; Millipore), CREB (43 kDa; 1:1,000; #9197; Cell Signaling Technology), phospho-CREB (43 kDa; 1:1,000; #9198; Cell Signaling Technology), ERK (44 kDa; 1:1,000; #sc094; Santa Cruz), phospho-ERK (42, 44 kDa; 1:1,000; #sc-7383; Santa Cruz), phospho-Akt (60 kDa; 1:500; sc-293125; Santa Cruz), phospho-JNK (46, 54 kDa; 1:500; sc-6254; Santa Cruz), phosphor-p38 (38 kDa; 1:1,000; sc-7973; Santa Cruz), and beta-Actin (45 kDa; 1:10,000; #4967; Cell Signaling Technology). In addition, as isotype-matched horseradish peroxidase-conjugated secondary antibodies, anti-rabbit IgG (#711-035-152; Jackson ImmunoResearch) diluted 1:100,000, and anti-mouse IgG (#715-035-150; Jackson ImmunoResearch) diluted 1:40,000 in TBST were used at room temperature for 2 hours. Immunoreactive protein bands were obtained using SuperSignal™ West Pico Chemiluminescent Substrate (#34080; Thermo Fisher Scientific).

[4] = tested on: Olfr920, Olfr1417 and Olfr99; conditions: also react with MOCK

## Cc1ccoc1C [2,3-dimethylfuran]
Olfr111
  binding to Olfr1111: do not bind
Olfr110
  binding to Olfr110: do not bind

## CCc1ccco1 [2-EF, 2-ethylfuran]
Primary microglia [1]; 2-EF pretreated at 0, 100, 300, 500 μM
  amount of ROS generated by 100 MOI Sup: diminished as the 2-EF level increases
Primary microglia [1]
  ROS generated with 2-PF co-treatment: the higher the concentration of 2-EF added, the lower the concentration of the generated ROS
Primary microglia [1]; listed as 2-ethylfuran
  ROS generated with 2-PF co-treatment: reduced
Olfr111
  binding to Olfr1111: do not bind
Olfr110
  mode of action at Olfr110: competitive inhibitor (antagonist)
  binding to Olfr110: do not bind
Olfr110; 2-PF fixed at 300 μM, 2-EF 1 μM to 10 mM
  2-PF activity on Olfr110 with co-treatment: 2-PF activity decreases
Olfr110; 2-PF fixed at 300 μM, 2-EF 1 μM to 10 mM, read-out: Kd (competitive activity against 2-PF)
  Kd: 120 µM

## CCCCc1ccco1 [2-butylfuran]
Olfr111
  reactivity with Olfr111 (relative luciferase activity): showed reactivity
Olfr110
  reactivity with Olfr110 (relative luciferase activity): showed reactivity

## CCCCCCCc1ccco1 [2-heptylfuran]
Olfr111
  binding to Olfr1111: do not bind
Olfr110
  binding to Olfr110: do not bind

## CCCCCCc1ccco1 [2-hexylfuran]
Olfr111
  reactivity with Olfr111 (relative luciferase activity): showed reactivity
  binding to Olfr1111: do not bind
Olfr110
  reactivity with Olfr110 (relative luciferase activity): showed reactivity
  binding to Olfr110: do not bind

## Cc1ccco1 [2-methylfuran]
Olfr111
  binding to Olfr1111: do not bind
Olfr110
  binding to Olfr110: do not bind

## CCCc1ccco1 [2-propylfuran]
Olfr111
  reactivity with Olfr111 (relative luciferase activity): showed reactivity
Olfr110
  reactivity with Olfr110 (relative luciferase activity): showed reactivity

## CC(C)(C)c1ccco1 [2-t-butylfuran]
Olfr111
  reactivity with Olfr111 (relative luciferase activity): showed reactivity
Olfr110
  reactivity with Olfr110 (relative luciferase activity): showed reactivity

## O=S(=O)(NCCNC/C=C/c1ccc(Br)cc1)c1cccc2cnccc12 [H-89]
Primary microglia [2]
  Tnf and Il6 cytokine levels after 2-PF: great decrease

## Nc1ncnc2c1ncn2C1CCCO1 (stereo not drawn) [SQ22536]
Primary microglia [2]
  Tnf and Il6 cytokine levels after 2-PF: great decrease
Primary microglia [3]
  CREB and ERK phosphorylation: greatly decreased

## COc1ccc2c(c1)CC[C@@H]1[C@@H]2CC[C@]2(C)[C@@H](NCCCCCCN3C(=O)C=CC3=O)CC[C@@H]12 [U73122, reference compound]
Primary microglia [1]
  ROS generation after 2-PF: completely inhibited
Primary microglia [2]
  Tnf and Il6 cytokine levels after 2-PF: relatively less decrease

## CCO [ethanol]
[4]
  reactivity of the other three receptors: non-specific reaction

## O=C1OC2(c3ccccc31)c1ccc(O)c(O)c1Oc1c2ccc(O)c1O [gallein, reference compound]
Primary microglia [1]
  ROS generation after 2-PF: similarly inhibited

## COc1cccc(-c2cc(=O)c3ccccc3o2)c1N [pd98059]
Primary microglia [2]
  Tnf and Il6 cytokine levels after 2-PF: relatively less decrease
Primary microglia [3]
  CREB and ERK phosphorylation: greatly decreased
